Experiment: Sodium perborate tetrahydrate solubility tests in fresh water
Type: physicochemical
Conditions: density 8.33 pounds per gallon, 75° F., with mixing; for Amount Dissolved (solubility of sodium perborate tetrahydrate in water): 10% by weight of water was a pass/fail target, not the maximum solubility
Experimental: Sodium perborate tetrahydrate solubility tests in fresh water having a density of 8.33 pounds per gallon were conducted. […] The sodium borate tetrahydrate-complex or ester forming compound mixtures all contained a molar ratio of sodium perborate tetrahydrate to the complex or ester forming compound of 1:2, and the mixtures were added to the water in amounts whereby the sodium perborate tetrahydrate was present in an amount of 10% by weight of the water.

O.O.O.O.[Na+].[O-]B1OO1 [Sodium Perborate Tetrahydrate]
Amount Dissolved (solubility of sodium perborate tetrahydrate in water): 2.5% by weight of water
Amount Dissolved (solubility of sodium perborate tetrahydrate in water) (listed as sodium perborate tetrahydrate): 2.5 % by weight of water
Time Required (time to dissolve the stated amount): <15 min
